Assay results reported in ChEMBL document CHEMBL1201862, “PubChem BioAssay data set” (2004).
Calls of active or inactive are those of the source.

Tests used:
Large T antigen = Large T antigen (Simian virus 40, UniProt P03070); format: functional, Betapolyomavirus macacae;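 further: Confirmatory-stage PubChem screen for compounds that inhibit SV40 T antigen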
[1] = target: E3 ubiquitin-protein ligase Mdm2 (Homo sapiens, UniProt Q00987); assay: MDM2-luc reporter signal enhancers, multi-concentration potency testing, MDM2 ubiquitin-protein ligase inhibitor program, whole-cell format, luminescence detection, 384-well microplate (AID 1394); format: functional;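 further: MDM2 E3 inhibitors raise luminescence so EC50 is for signal enhancement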
[2] = target: G-protein coupled receptor 55 (Homo sapiens, UniProt Q9Y2T6); assay: inhibition of LPI-stimulated GPR55 beta-arrestin translocation – imaging, U2OS, beta-arrestin-GFP, LPI agonist, primary screen (AID 2013); format: functional;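 further: antagonist potency measured as reduced agonist-driven arrestin aggregation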
[3] = target: T1, Mannose-6-phosphate isomerase (Homo sapiens, UniProt P34949); assay: MPI inhibition at elevated mannose 6-phosphate – biochemical, fluorescence intensity, high mannose 6-phosphate, primary screen (AID 1220)
T1 sequence (P34949 whole entry): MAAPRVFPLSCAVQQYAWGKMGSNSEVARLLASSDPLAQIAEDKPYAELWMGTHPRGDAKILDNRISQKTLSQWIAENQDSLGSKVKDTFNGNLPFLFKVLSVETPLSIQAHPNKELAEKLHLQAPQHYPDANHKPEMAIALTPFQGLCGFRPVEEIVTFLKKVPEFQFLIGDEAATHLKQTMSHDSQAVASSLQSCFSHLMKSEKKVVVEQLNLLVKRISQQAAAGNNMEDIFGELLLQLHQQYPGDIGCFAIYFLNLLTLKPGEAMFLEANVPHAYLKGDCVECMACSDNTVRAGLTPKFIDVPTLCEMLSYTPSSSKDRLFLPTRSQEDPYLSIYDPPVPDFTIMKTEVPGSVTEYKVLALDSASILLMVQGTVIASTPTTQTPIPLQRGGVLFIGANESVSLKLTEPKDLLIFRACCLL

Vero = assay: viability of Vero cells under compound – cytotoxicity control for flavivirus capping enzyme inhibitors (AID 588742); format: functional; conditions: Chlorocebus sabaeus
[4] = HIV-1 Vif–A3G interaction blockers – biochemical, TR-FRET, GST-Vif 1-94, biotin-A3G peptide, dose response retest, primary screen (AID 1117319); format: functional;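 further: TR-FRET signal of purified GST-Vif binding a biotinylated A3G peptide; inhibitors lower the FRET signal by blocking Vif and A3G binding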
[5] = viability inhibitors of stage V gametocytes – luminescence, dose response (AID 1117278); format: functional, cell-based;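 further: gametocytes exposed to compound for 24 hours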
Genome polyprotein = Genome polyprotein (Hepatitis C virus, UniProt Q2Q167); assay: disruption of hepatitis C core self-association – biochemical, TR-FRET, dose response (AID 2159); set-up: species or system Hepacivirus hominis;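 further: blocks dimerization of HCV core protein measured by TR-FRET between tagged core106 pairs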
[6] = target: Induced myeloid leukemia cell differentiation protein Mcl-1 (Homo sapiens, UniProt Q07820); format: functional
[7] = viability loss in human Jurkat cells – cell-based, luminescence, cytotoxicity control for P. falciparum gametocyte viability project, dose response (AID 1117277); format: functional;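 further: potency reflects loss of cellular ATP meaning fewer viable cells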
[8] = system: Streptococcus sp. 'group A'; assay: Streptococcus pyogenes SK(-)GAS viability under kanamycin – luminescence, BacTiterGlo, confirmation, counter-screen for streptokinase expression inhibitor project, dose response (AID 1900); format: functional, organism-based
Streptococcus = assay: GAS UMAA2166 growth inhibition – luminescence, BacTiterGlo, counter-screen for streptokinase expression inhibitor project, dose response (AID 1915); format: functional, organism-based;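 further: potency for reduction of bacterial viability or growth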
[9] = Luminescent dose response cell-based high throughput screening assay for inhibitors of the Janus kinase 2 mutant JAK2V617F. [Related pubchem assays: 1446 (Primary screen.), 1521 (Confirmation assay.), 1486 (Counter screen.)]; format: functional
Streptokinase A = target: T2, Streptokinase A (Streptococcus pyogenes serotype M1, UniProt P10520); assay: viability-normalized secreted streptokinase activity reduction – plasminogen activation absorbance, OD405, dose response (AID 1914); format: functional, Streptococcus pyogenes M1 GAS;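 further: secreted streptokinase activity via plasminogen activation per viability signal from cell pellet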
T2 sequence (P10520 whole entry): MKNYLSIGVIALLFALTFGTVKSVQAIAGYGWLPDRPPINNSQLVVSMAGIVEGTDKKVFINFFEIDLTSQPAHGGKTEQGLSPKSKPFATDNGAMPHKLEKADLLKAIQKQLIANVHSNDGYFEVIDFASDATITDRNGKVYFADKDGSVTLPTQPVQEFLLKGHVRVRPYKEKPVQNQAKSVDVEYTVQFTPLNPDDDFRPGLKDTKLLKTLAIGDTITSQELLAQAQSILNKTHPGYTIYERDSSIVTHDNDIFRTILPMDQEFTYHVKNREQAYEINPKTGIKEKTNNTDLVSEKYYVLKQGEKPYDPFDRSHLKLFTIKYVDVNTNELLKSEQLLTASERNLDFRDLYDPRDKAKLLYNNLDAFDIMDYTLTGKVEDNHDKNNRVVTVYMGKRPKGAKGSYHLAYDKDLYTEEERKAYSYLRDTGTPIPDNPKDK

Sequence of G-protein coupled receptor 55 (Q9Y2T6 whole entry): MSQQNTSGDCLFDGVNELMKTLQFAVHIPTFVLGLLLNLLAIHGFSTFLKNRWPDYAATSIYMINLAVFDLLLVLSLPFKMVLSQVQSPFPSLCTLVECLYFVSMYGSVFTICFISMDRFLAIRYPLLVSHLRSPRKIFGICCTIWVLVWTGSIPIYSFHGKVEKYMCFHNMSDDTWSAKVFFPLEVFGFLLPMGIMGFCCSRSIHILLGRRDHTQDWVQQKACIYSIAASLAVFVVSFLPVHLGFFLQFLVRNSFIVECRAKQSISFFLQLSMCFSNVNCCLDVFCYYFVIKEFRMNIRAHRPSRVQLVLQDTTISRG
Sequence of Induced myeloid leukemia cell differentiation protein Mcl-1 (Q07820 whole entry): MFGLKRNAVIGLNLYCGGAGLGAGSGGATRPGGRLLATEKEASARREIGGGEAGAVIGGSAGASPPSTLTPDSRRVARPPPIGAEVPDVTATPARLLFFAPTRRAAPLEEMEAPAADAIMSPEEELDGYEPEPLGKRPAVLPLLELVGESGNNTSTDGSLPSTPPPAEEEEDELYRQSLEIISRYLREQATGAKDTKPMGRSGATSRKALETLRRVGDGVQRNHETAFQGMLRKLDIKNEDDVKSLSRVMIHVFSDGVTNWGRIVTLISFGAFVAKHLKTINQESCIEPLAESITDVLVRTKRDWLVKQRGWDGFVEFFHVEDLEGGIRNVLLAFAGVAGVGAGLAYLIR
Sequence of E3 ubiquitin-protein ligase Mdm2 (Q00987 whole entry): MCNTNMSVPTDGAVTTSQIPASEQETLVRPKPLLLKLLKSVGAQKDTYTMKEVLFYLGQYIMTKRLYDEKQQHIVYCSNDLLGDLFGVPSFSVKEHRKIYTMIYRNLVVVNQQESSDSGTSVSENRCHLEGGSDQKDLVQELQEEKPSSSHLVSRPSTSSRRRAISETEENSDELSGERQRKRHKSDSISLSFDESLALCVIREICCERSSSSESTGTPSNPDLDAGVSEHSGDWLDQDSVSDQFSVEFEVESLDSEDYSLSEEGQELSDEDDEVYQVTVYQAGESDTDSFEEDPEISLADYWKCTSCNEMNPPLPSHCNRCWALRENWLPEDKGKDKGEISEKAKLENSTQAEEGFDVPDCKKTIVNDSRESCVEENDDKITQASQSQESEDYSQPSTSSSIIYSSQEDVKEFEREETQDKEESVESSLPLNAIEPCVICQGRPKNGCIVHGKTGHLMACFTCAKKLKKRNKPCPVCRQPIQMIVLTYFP
Sequence of Genome polyprotein (Q2Q167 whole entry): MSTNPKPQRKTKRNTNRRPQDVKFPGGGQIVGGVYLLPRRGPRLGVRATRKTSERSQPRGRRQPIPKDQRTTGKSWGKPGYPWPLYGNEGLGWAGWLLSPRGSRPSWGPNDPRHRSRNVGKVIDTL
Sequence of Large T antigen (P03070 whole entry): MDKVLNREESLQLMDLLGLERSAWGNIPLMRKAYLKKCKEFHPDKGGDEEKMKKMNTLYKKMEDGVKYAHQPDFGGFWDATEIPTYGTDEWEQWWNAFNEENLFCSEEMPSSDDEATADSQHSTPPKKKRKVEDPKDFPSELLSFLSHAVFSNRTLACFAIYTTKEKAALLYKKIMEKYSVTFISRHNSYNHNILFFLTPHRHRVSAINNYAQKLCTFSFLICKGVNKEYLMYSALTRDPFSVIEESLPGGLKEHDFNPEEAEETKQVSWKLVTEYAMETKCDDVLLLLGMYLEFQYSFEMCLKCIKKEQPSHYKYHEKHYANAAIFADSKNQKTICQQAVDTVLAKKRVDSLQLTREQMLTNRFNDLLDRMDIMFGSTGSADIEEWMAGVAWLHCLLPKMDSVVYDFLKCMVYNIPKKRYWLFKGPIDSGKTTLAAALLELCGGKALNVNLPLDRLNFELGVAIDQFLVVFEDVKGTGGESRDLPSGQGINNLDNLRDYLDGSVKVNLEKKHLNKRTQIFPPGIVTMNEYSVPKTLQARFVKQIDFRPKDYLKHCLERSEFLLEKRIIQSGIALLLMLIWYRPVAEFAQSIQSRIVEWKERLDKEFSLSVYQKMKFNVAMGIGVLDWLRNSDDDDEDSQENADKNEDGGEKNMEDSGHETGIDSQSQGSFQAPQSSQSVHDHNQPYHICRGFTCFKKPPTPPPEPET

In the case of `CC1=NN(c2cccc(C(=O)O)c2)C(=O)/C1=C\C=C/c1ccccc1`, the IC50 (Large T antigen) was 20.4 µM (active), the EC50 [1] was 4.82 µM (active) and the IC50 [2] was 3.3 µM (active).
In the case of `CCc1cccc(C)c1N=C(S)NCC1CCN(c2ccc(OC)cc2)C1` (centres undefined), the IC50 [3] was > 50 µM (not active) and the CC50 (Vero) was > 40 µM (active).
In the case of `CC(C)(C)CN1CCNC(=O)C1CC(=O)NCCc1ccccc1C(F)(F)F` (centres undefined), the IC50 [4] was > 100 µM (active).
In the case of `CCN(CC)S(=O)(=O)c1ccc(N2CCOCC2)c(NC(=O)c2c3c(nc4ccccc24)CCC3)c1`, the IC50 [5] was > 109 µM (inactive), the IC50 (Genome polyprotein) was > 49.8 µM (not active) and the IC50 [6] was 5.07 µM (active). The IC50 [7] was > 83.3 µM (inactive).
For `O=C(Oc1cccc2c(O)cccc12)c1ccccc1`, the EC50 [8] was 29 µM (active), the EC50 (Streptococcus) was > 150 µM (not active) and the IC50 [9] was 7.47 µM (active). The EC50 (Streptokinase A) was 63.7 µM (active).
